{
  "source": "the PolyMetriX glass transition set",
  "note": "± gives the standard deviation of the reports.",
  "data": [
    {"units": {"glass transition temperature": "°C"}, "values": [
      {"smiles": "*c1ccc(Oc2ccc(C(c3ccc(Oc4ccc(-n5c(=O)c6cc7c(=O)n(*)c(=O)c7cc6c5=O)cc4C(F)(F)F)cc3)(C(F)(F)F)C(F)(F)F)cc2)c(C(F)(F)F)c1", "note": "(repeat unit)", "glass transition temperature": 253.00},
      {"smiles": "*c1ccc(Nc2c(F)c(F)c(-c3c(F)c(F)c(Nc4ccc(S(*)(=O)=O)cc4)c(F)c3F)c(F)c2F)cc1", "note": "(repeat unit)", "glass transition temperature": 332.00},
      {"smiles": "*CC(*)(F)C(=O)OCC(F)(F)C(F)(F)F", "note": "(repeat unit)", "glass transition temperature": 99.00},
      {"smiles": "*CC(*)(CC(=O)OCCOC)C(=O)OCCOC", "note": "(repeat unit)", "glass transition temperature": 34.00},
      {"smiles": "*CCOCCOCCN1C(=O)c2ccc(C(=O)Oc3ccc(C(C)(C)c4ccc(OC(=O)c5ccc6c(c5)C(=O)N(*)C6=O)cc4)cc3)cc2C1=O", "note": "(repeat unit)", "glass transition temperature": 118.00},
      {"smiles": "*Oc1ccc(C(=O)c2cccc(-c3cccc(C(=O)c4ccc(*)cc4)c3)c2)cc1", "note": "(repeat unit)", "glass transition temperature": 123.00},
      {"smiles": "*Oc1ccc(S(=O)(=O)c2ccc(Oc3cccc(NC(=O)c4ccc(-c5ccc(C(=O)Nc6cccc(*)c6)c(C)c5)cc4C)c3)cc2)cc1", "note": "(repeat unit)", "glass transition temperature": 220.00},
      {"smiles": "*C(=O)Nc1ccc(NC(=O)c2ccc3c(c2)C(=O)N(c2ccc(S(=O)(=O)c4ccc(N5C(=O)c6ccc(*)cc6C5=O)cc4)cc2)C3=O)cc1", "note": "(repeat unit)", "glass transition temperature": 368.00},
      {"smiles": "*C(=O)c1ccc2c(c1)C(=O)N(c1ccc(Oc3ccc(C(c4ccc(Oc5ccc(N6C(=O)c7ccc(*)cc7C6=O)cc5C(F)(F)F)cc4)(C(F)(F)F)C(F)(F)F)cc3)c(C(F)(F)F)c1)C2=O", "note": "(repeat unit)", "glass transition temperature": 220.00},
      {"smiles": "*Oc1ccc(S(=O)(=O)c2ccc(OC(=O)c3ccc([Si](c4ccccc4)(c4ccccc4)c4ccc(C(*)=O)cc4)cc3)cc2)cc1", "note": "(repeat unit)", "glass transition temperature": 250.00},
      {"smiles": "*OC1C(COCO)OC(*)C(O)C1O", "note": "(repeat unit)", "glass transition temperature": 208.00},
      {"smiles": "*CCOC(=O)CCCCCCCCC(=O)O*", "note": "(repeat unit) [Poly(ethylene sebacate)]", "glass transition temperature": "-29.6 ± 3.9"},
      {"smiles": "*Oc1ccc(Oc2ccc(OC(=O)c3cccc(C(*)=O)c3)cc2)cc1", "note": "(repeat unit)", "glass transition temperature": 164.50},
      {"smiles": "*c1ccc(Oc2ccc(C(=O)c3ccc(Oc4ccc(-c5nnc(*)c6c(-c7ccccc7)c(-c7ccc8ccccc8c7)c(-c7ccc8ccccc8c7)c(-c7ccccc7)c56)cc4)cc3)cc2)cc1", "note": "(repeat unit)", "glass transition temperature": 312.00},
      {"smiles": "*C(=O)Nc1ccc(Oc2ccc(Oc3ccc(NC(=O)c4ccc5c(c4)C(=O)N(c4ccc(Oc6cccc7c(Oc8ccc(N9C(=O)c%10ccc(*)cc%10C9=O)cc8)cccc67)cc4)C5=O)cc3)cc2)cc1", "note": "(repeat unit)", "glass transition temperature": 285.00},
      {"smiles": "*Oc1ccc(S(=O)(=O)c2ccc(Oc3ccc(C(C)(C)c4ccc(*)cc4)cc3)cc2N)c(N)c1", "note": "(repeat unit)", "glass transition temperature": 210.50},
      {"smiles": "*Oc1ccc(Oc2ccc(C(=O)c3ccc(*)cc3)cc2)cc1S(=O)(=O)O", "note": "(repeat unit)", "glass transition temperature": 225.00},
      {"smiles": "*C(=O)NCCCCCCNC(=O)c1ccc(*)nc1", "note": "(repeat unit)", "glass transition temperature": 80.00},
      {"smiles": "*c1c(C)cc(C)c(N2C(=O)c3cccc(Oc4c(C)cc(Cc5cc(C)c(Oc6cccc7c6C(=O)N(*)C7=O)c(C)c5)cc4C)c3C2=O)c1C", "note": "(repeat unit)", "glass transition temperature": 287.00},
      {"smiles": "*c1ccc2c(c1)C(=O)N(c1ccc(-c3ccc(N4C(=O)c5ccc(C(*)(C(F)(F)F)C(F)(F)F)cc5C4=O)cc3C(F)(F)F)c(C(F)(F)F)c1)C2=O", "note": "(repeat unit)", "glass transition temperature": "327.00 ± 18"},
      {"smiles": "*CC(*)(C)C(=O)Oc1c(OC)cc(/C=C/c2ccccc2)cc1OC", "note": "(repeat unit)", "glass transition temperature": 140.00},
      {"smiles": "*CCOCCOCCOCCOCCOc1ccc(C(=O)Nc2cc(NC(=O)c3ccc(O*)cc3)cc(-c3nc4ccccc4[nH]3)c2)cc1", "note": "(repeat unit)", "glass transition temperature": 145.00},
      {"smiles": "*c1ccc(C(c2ccc(N3C(=O)c4cc5c(cc4C3=O)C(C(F)(F)F)(C(F)(F)F)c3cc4c(cc3O5)C(=O)N(*)C4=O)cc2)(C(F)(F)F)C(F)(F)F)cc1", "note": "(repeat unit)", "glass transition temperature": 430.00},
      {"smiles": "*Oc1ccc(-c2ccc(Oc3ccc(C(=O)c4c(C(=O)c5ccc(*)cc5)c(-c5ccccc5)c(-c5ccc6ccccc6c5)c(-c5ccc6ccccc6c5)c4-c4ccccc4)cc3)cc2)cc1", "note": "(repeat unit)", "glass transition temperature": 290.00},
      {"smiles": "*Oc1ccc(C(C)(C)c2ccc(OC(*)=O)c(C(C)C)c2)cc1C(C)C", "note": "(repeat unit)", "glass transition temperature": 80.00},
      {"smiles": "*c1ccc(C(=O)c2ccc(-n3nc(-c4ccc(Sc5ccc(-c6nn(*)c(=O)c7ccccc67)cc5)cc4)c4ccccc4c3=O)cc2)cc1", "note": "(repeat unit)", "glass transition temperature": 281.00},
      {"smiles": "*Oc1cccc2ccc(Oc3ccc(NC(=O)c4cccc(C(=O)Nc5ccc(*)cc5)c4)cc3)cc12", "note": "(repeat unit)", "glass transition temperature": 256.00},
      {"smiles": "*C1CCC(N2C(=O)c3ccc(-c4ccc5c(c4)C(=O)N(*)C5=O)cc3C2=O)CC1", "note": "(repeat unit)", "glass transition temperature": 360.00},
      {"smiles": "*CC(*)(C)C(=O)OCCCCCCCOc1ccc2cc(C(=O)Oc3ccccc3)ccc2c1", "note": "(repeat unit)", "glass transition temperature": 40.00},
      {"smiles": "*CCCCCN1C(=O)c2ccc(C(=O)Oc3ccc(-c4ccc(OC(=O)c5ccc6c(c5)C(=O)N(*)C6=O)cc4)cc3)cc2C1=O", "note": "(repeat unit)", "glass transition temperature": 147.00},
      {"smiles": "*CC(*)C(=O)OCCC(F)(F)C(F)(F)C(F)(F)C(F)(F)C(F)(F)C(F)(F)C(F)(F)C(F)(F)F", "note": "(repeat unit)", "glass transition temperature": 52.00},
      {"smiles": "*O[Si](*)(C)CCCCCOc1ccc(/C=C/c2ccc(OC)cc2)cc1", "note": "(repeat unit)", "glass transition temperature": 52.00},
      {"smiles": "*Oc1ccc(P(C)(=O)c2ccc(Oc3ccc(C(c4ccccc4)(c4ccc(*)cc4)C(F)(F)F)cc3)cc2)cc1", "note": "(repeat unit)", "glass transition temperature": 229.00},
      {"smiles": "*Oc1ccc(C(C)(C)c2ccc(OC(*)=O)c(CC)c2)cc1CC", "note": "(repeat unit)", "glass transition temperature": 65.00},
      {"smiles": "*Nc1ccc(C(c2ccc(NC(=O)c3cc(NC(=O)CCCCCN4C(=O)c5ccccc5C4=O)cc(C(*)=O)c3)cc2)(C(F)(F)F)C(F)(F)F)cc1", "note": "(repeat unit)", "glass transition temperature": 225.00},
      {"smiles": "*c1ccc(NC(=O)CN2C(=O)c3ccc(C(c4ccc5c(c4)C(=O)N(CC(=O)Nc4ccc(-c6nnc(*)o6)cc4)C5=O)(C(F)(F)F)C(F)(F)F)cc3C2=O)cc1", "note": "(repeat unit)", "glass transition temperature": 280.00},
      {"smiles": "*c1ccc(C(F)(F)C(*)(F)F)cc1", "note": "(repeat unit)", "glass transition temperature": 77.0},
      {"smiles": "*CC#CC#CCOc1cccc(C(=O)OCCN(CCOC(=O)c2cccc(O*)c2)c2ccc(/N=N/c3ccc(C#N)cc3)cc2)c1", "note": "(repeat unit)", "glass transition temperature": 50.00},
      {"smiles": "*Nc1ccc(NC(=O)c2cc(C(*)=O)c(C(=O)O)cc2C(=O)O)cc1", "note": "(repeat unit)", "glass transition temperature": 283.40},
      {"smiles": "*c1ccc(Oc2ccc(C(=O)c3ccc(Oc4ccc(-c5cc(*)[nH]n5)cc4)cc3)cc2)cc1", "note": "(repeat unit)", "glass transition temperature": 229.00},
      {"smiles": "*CCCCOc1ccc(OC(=O)c2ccc(C(=O)Oc3ccc(O*)cc3)c(C(=O)OCC=C)c2)cc1", "note": "(repeat unit)", "glass transition temperature": 56.00},
      {"smiles": "*O[Si](*)(C)CCCOCCOCCOc1ccc(COc2ccc3cc(C#N)ccc3c2)cc1", "note": "(repeat unit)", "glass transition temperature": 30.00},
      {"smiles": "*c1cccc(Oc2cccc(Oc3cccc(N4C(=O)c5c(c(-c6ccccc6)c(-c6ccc(Oc7ccc(Oc8ccc(-c9c(-c%10ccccc%10)c%10c(c(-c%11ccccc%11)c9-c9ccccc9)C(=O)N(*)C%10=O)cc8)cc7)cc6)c(-c6ccccc6)c5-c5ccccc5)C4=O)c3)c2)c1", "note": "(repeat unit)", "glass transition temperature": 238.00},
      {"smiles": "*Oc1ccc(/N=C/C=N/c2ccc(OC(=O)NC3CC(C)(C)CC(C)(CNC(*)=O)C3)cc2)cc1", "note": "(repeat unit)", "glass transition temperature": 62.00},
      {"smiles": "*c1ccc2c(c1)C(=O)N(c1ccc(Oc3ccc(C(=O)c4cccc(C(=O)c5ccc(Oc6ccc(N7C(=O)c8ccc(C(*)(C(F)(F)F)C(F)(F)F)cc8C7=O)cc6C(F)(F)F)cc5)n4)cc3)c(C(F)(F)F)c1)C2=O", "note": "(repeat unit)", "glass transition temperature": 206.40},
      {"smiles": "*NNC(=O)c1ccc(C(*)=O)cc1OCCCCCCCCCC", "note": "(repeat unit)", "glass transition temperature": 193.00},
      {"smiles": "*C(=O)Nc1cccc(NC(=O)c2ccc(N3C(=O)c4ccc(*)cc4C3=O)cc2)c1", "note": "(repeat unit)", "glass transition temperature": 240.00},
      {"smiles": "*CC(*)c1ccc(C(O)CCN(C)C)cc1", "note": "(repeat unit)", "glass transition temperature": 43.00},
      {"smiles": "*c1ccc(Oc2cccc(N3C(=O)c4ccc(Oc5ccc6ccc(Oc7ccc8c(c7)C(=O)N(*)C8=O)cc6c5)cc4C3=O)c2)cc1", "note": "(repeat unit)", "glass transition temperature": 221.00},
      {"smiles": "*CC(O)CN(C)S(=O)(=O)c1cccc(S(=O)(=O)N(C)CC(O)COc2ccc(C(C)(C)c3ccc(O*)cc3)cc2)c1", "note": "(repeat unit)", "glass transition temperature": 76.00},
      {"smiles": "*Oc1ccc(Oc2ccc(OC(=O)c3ccccc3-c3ccccc3C(*)=O)cc2)cc1", "note": "(repeat unit)", "glass transition temperature": 147.00},
      {"smiles": "*CC(*)CNc1ccc([N+](=O)[O-])cc1C", "note": "(repeat unit)", "glass transition temperature": 151.00},
      {"smiles": "*C(=O)c1ccc(N(*)CCCCCCC)cc1", "note": "(repeat unit)", "glass transition temperature": 45.90},
      {"smiles": "*Oc1c(Br)cc(C(C)(C)c2cc(Br)c(OC(=O)c3cccc(C(*)=O)c3)c(Br)c2)cc1Br", "note": "(repeat unit)", "glass transition temperature": 115.00},
      {"smiles": "*C(=O)c1ccc2c(c1)C(=O)N(c1ccc(-c3c(-c4ccc(-c5ccccc5)cc4)cc(-c4ccc(OCCCCCCOc5ccc(-c6cc(-c7ccc(-c8ccccc8)cc7)c(-c7ccc(N8C(=O)c9ccc(*)cc9C8=O)cc7)c(-c7ccc(-c8ccccc8)cc7)c6)cc5)cc4)cc3-c3ccc(-c4ccccc4)cc3)cc1)C2=O", "note": "(repeat unit)", "glass transition temperature": 111.50},
      {"smiles": "*O[Si](*)(C)CCCCCCCCCCC(=O)Oc1ccc(-c2ccc(OC(=O)c3ccc(OCCCCCCC)cc3)cc2)cc1", "note": "(repeat unit)", "glass transition temperature": 61.10},
      {"smiles": "*=Nc1ccc(Cc2ccc(NC(=*)CCCC)cc2)cc1", "note": "(repeat unit)", "glass transition temperature": 106.00},
      {"smiles": "*/C=C/C(*)(C)c1ccccc1", "note": "(repeat unit)", "glass transition temperature": 52.00},
      {"smiles": "*Oc1ccc(CC(NC(=O)CCc2ccc(OC(=O)CCCCCCC(*)=O)cc2)C(=O)OCCCC)cc1", "note": "(repeat unit)", "glass transition temperature": 37.00},
      {"smiles": "*c1ccc(Oc2ccc(N3C(=O)c4ccc(Oc5ccc(C6(c7ccc(Oc8ccc9c(c8)C(=O)N(*)C9=O)cc7)CCCCCCCCCCC6)cc5)cc4C3=O)cc2)cc1", "note": "(repeat unit)", "glass transition temperature": 230.00}
    ]}
  ]
}
